Read-outs that look alike come from different tables or passages of the source.
What was measured:
[1] = tested on: primary human cardiac myocytes (HCM); details: for delta slope (DS), short-term / delta slope (DS), long-term: HCM, three parallels; for delta slope (DS), short-term: 0–2 h; for delta slope (DS), long-term: 0–72 h
Text: (§1) The main objective of the study reported here was to evaluate the in vitro cardiotoxic effects (as undesired side effects) of […] GnRH-III-based conjugates containing doxorubicin, daunorubicin and methotrexate on two essential target cells of cardiovascular diseases: vascular endothelial cells and cardiomyocytes. The rate of cytotoxicity (antitumor effect) vs cardiotoxicity (toxic effects on cardiomyocytes and vascular endothelium) is an important factor for efficient drug development for targeted tumor therapy with minimized side effects. The technique used in this work – impedimetry – is a dedicated one for real-time monitoring of cells to distinguish short-term (0–2 hours) and long-term (0–72 hours) effects elicited by the drug or carrier–drug conjugates. The basic theory of impedimetry is that proliferation/viability of cells is well detectable by monitoring of the electric impedance (Z) in an AC environment, due to the electric insulator character of intact surface membranes composed of the phospholipid bilayer. […] While cell physiological responses of short-term exposures result in characteristic changes of cell morphology (e.g., spreading), long-term effects characteristically influence in particular the proliferation of cells, and therefore the cytotoxic effects. The presented dimensionless values of delta slope (DS) measure the difference between the slope of the curve corresponding to the treatment and that of the control curve in impedimetric recordings, the negative signs refer to the relative values to the identical control.
(§2) Experimental part – Cellular samples
(§3) In the present study, GnRH conjugates containing anti-tumour drugs (e.g., daunorubicin, doxorubicin) were investigated in order to evaluate whether the conjugates exert a decrease cardiotoxic effect compared to that of the free drugs. The cardiac myocytes and the vascular endothelium cells are the most frequently detected target cells of antitumor compounds and they are employed in our study. Human umbilical vein endothelial cells (HUVEC; Promocell, Biomedica, Wien, Austria) were cultured in Endothelial Cell Growth Medium with Endothelial Cell Growth Supplement Mix (Promocell, Biomedica, Wien, Austria) and 100 µg/mL penicillin/streptomycin. Primary human cardiac myocytes (HCM; Promocell, Biomedica, Wien, Austria) were cultured in Myocyte Growth Medium (Promocell, Biomedica, Wien, Austria).
(§4) Impedimetric measurements
(§5) The xCELLigence SP system was used for impedimetric measurements. The bottom of the wells of a 96-well E-plate is installed with a golden electrode array that constitutes the adhesion surface. Adhering cells – acting as insulators – change the electric impedance measured on the electrodes. The measured impedance change is in direct correlation with the number of adhering cells and the extent of adhesion. The results of impedance change are given in the form of Cell Index (CI) calculated by the xCELLigence system according to the […]
(§6) where Zt is the measured impedance in a time point, Zb is the background impedance and F is an inbuilt factor (F = 15 at 10 kHz) depending on the frequency of the alternating current. The measurements took place in an incubator holding a 37 °C temperature and 5% carbon-dioxide […]
(§7) The experiments started with a measurement of baseline impedance for 1 hour. After that, the cells (10^4 cells/well) were added to the wells and allowed to adhere to the electrodes. When the adhering cells reached a balanced state in the wells, signified by the impedance curves […]
(§8) free drugs at 10−12 – 10−6 M and the conjugates at 10−8 – 10−6 M final concentrations were […]
(§9) added to the wells. The changes in impedance were measured for at least 72 hours. For each measurement three parallels were measured.
(§10) The evaluation of responses followed the previously described strategy: acute effects of compounds were evaluated as a characteristic morphology of the curves in the 0–2 hours

[2] = tested on: human umbilical vein endothelial cells (HUVEC); assay: Impedimetric measurement (xCELLigence SP), delta slope, HUVEC; details: for delta slope (DS), short-term / delta slope (DS), long-term: HUVEC, three parallels; for delta slope (DS), short-term: 0–2 h; for delta slope (DS), long-term: 0–72 h; for cytotoxic effect on HUVEC, result in words: long-term (0–72 h), 10^−8–10^−6 mol/L, impedimetry, one-way ANOVA
Text: as §1, §2, §3, §4, §5, §6, §7, §8, §9, §10

[3] = tested on: human acute monocytic leukemia (MonoMac6) cells; details: cited from earlier work
Text: (§11) Table 1 Comparative study of cytotoxic effects and cardiotoxicity elicited by GnRH-based antitumor compounds (1–15) and reference substances (AN-152, Dox, Dau, Mtx). IC50 values show antitumor cytotoxic characteristics of the conjugates in human breast cancer (MCF-7), human colorectal adenocarcinoma (HT-29) and human acute monocytic leukemia (MM6) derived cell lines as representative tumor cells.

[4] = tested on: HT-29 human colon adenocarcinoma cells; details: MTT assay; cited from earlier work
Text: as §11

[5] = tested on: MCF-7 human breast adenocarcinoma cells; details: MTT assay; cited from earlier work
Text: as §11

[6] = grade +++/++/+/0, key not given, summary of impedimetric cytotoxicity

## CN(Cc1cnc2nc(N)nc(N)c2n1)c1ccc(C(=O)N[C@@H](CCC(=O)O)C(=O)O)cc1 [methotrexate]
[1]
  Cardiotoxicity, HCM: 0
  cytotoxic effect on HCM, result in words: no significant effect was measured
[1]; Table S1b, 10^-6 mol/L
  delta slope (DS), short-term: 0.005
[1]; Table S1b, 10^-7 mol/L
  delta slope (DS), short-term: 0.001
[1]; Table S1b, 10^-8 mol/L
  delta slope (DS), short-term: 0.001
[1]; Table S1b, 10^-9 mol/L
  delta slope (DS), short-term: -0.001
[1]; Table S1b, 10^-10 mol/L
  delta slope (DS), short-term: 0.001
[1]; Table S1b, 10^-11 mol/L
  delta slope (DS), short-term: 0.001
[1]; Table S1b, 10^-12 mol/L
  delta slope (DS), short-term: 0.002
[1]; Table S5b, 10^-6 mol/L
  delta slope (DS), short-term: 0.001
[2]
  Cardiotoxicity, HUVEC: +
[2]; Table S1a, 10^-6 mol/L
  delta slope (DS), short-term: 0.001
[2]; Table S1a, 10^-7 mol/L
  delta slope (DS), short-term: 0.002
[2]; Table S1a, 10^-8 mol/L
  delta slope (DS), short-term: 0.013
[2]; Table S1a, 10^-9 mol/L
  delta slope (DS), short-term: 0.019
[2]; Table S1a, 10^-10 mol/L
  delta slope (DS), short-term: 0.012
[2]; Table S1a, 10^-11 mol/L
  delta slope (DS), short-term: 0.013
[2]; Table S1a, 10^-12 mol/L
  delta slope (DS), short-term: 0.015
[2]; Table S5a, 10^-6 mol/L
  delta slope (DS), short-term: 0.005
[2]; Table S5a, 10^-7 mol/L
  delta slope (DS), short-term: 0.003
[2]; Table S5a, 10^-8 mol/L
  delta slope (DS), short-term: -0.003
[3]
  IC50: 0.008 ± 0.0002 µM
[4]
  IC50: 1.4 ± 0.6 µM

## [GnRH-III(Dau=Aoa-C)]2 [conjugate 9]
[1]; Table S4b, 10^-6 mol/L
  delta slope (DS), short-term: 0.003
  delta slope (DS), long-term: -0.001
[1]; Table S4b, 10^-7 mol/L
  delta slope (DS), short-term: 0.002
  delta slope (DS), long-term: -0.001
[1]; Table S4b, 10^-8 mol/L
  delta slope (DS), short-term: -0.001
  delta slope (DS), long-term: -0.002
[1]; [6]
  Cardiotoxicity, HCM: 0
[1]; long-term (0–72 h), 10^−8–10^−6 mol/L (free drugs 10^−12–10^−6 mol/L), impedimetry, one-way ANOVA
  cytotoxic effect on HCM, result in words: completely lost their cytotoxic effect
[2]; Table S4a, 10^-6 mol/L
  delta slope (DS), short-term: 0.014
  delta slope (DS), long-term: 0.001
[2]; Table S4a, 10^-7 mol/L
  delta slope (DS), short-term: 0.008
  delta slope (DS), long-term: -0.001
[2]; Table S4a, 10^-8 mol/L
  delta slope (DS), short-term: 0.001
  delta slope (DS), long-term: -0.002
[2]; [6]
  Cardiotoxicity, HUVEC: 0
[2]
  cytotoxic effect on HUVEC, result in words: completely lost the cytotoxic effect
[3]
  IC50: 1.69 ± 0.41 µM
[5]
  IC50: 4.1 ± 0.8 µM

## {GnRH-III(Dau=Aoa-YRRL-C)}2 [conjugate 11]
[1]; Table S4b, 10^-6 mol/L
  delta slope (DS), short-term: -0.004
  delta slope (DS), long-term: −0.004
[1]; Table S4b, 10^-7 mol/L
  delta slope (DS), short-term: -0.001
  delta slope (DS), long-term: -0.002
[1]; Table S4b, 10^-8 mol/L
  delta slope (DS), short-term: -0.001
  delta slope (DS), long-term: -0.001
[2]; Table S4a, 10^-6 mol/L
  delta slope (DS), short-term: 0.014
  delta slope (DS), long-term: −0.017
[2]; Table S4a, 10^-7 mol/L
  delta slope (DS), short-term: 0.002
  delta slope (DS), long-term: −0.005
[2]; Table S4a, 10^-8 mol/L
  delta slope (DS), short-term: 0.022
  delta slope (DS), long-term: 0.001
[3]
  IC50: 0.42 ± 0.05 µM

## {[^4N-MeSer]-GnRH-III(Dau=Aoa-C)}2 (disulfide) [conjugate 10, disulfide dimer based on conjugate 6]
[1]; Table S4b, 10^-6 mol/L
  delta slope (DS), short-term: 0.001
  delta slope (DS), long-term: −0.005
[1]; Table S4b, 10^-7 mol/L
  delta slope (DS), short-term: -0.001
  delta slope (DS), long-term: −0.003
[1]; Table S4b, 10^-8 mol/L
  delta slope (DS), short-term: -0.002
  delta slope (DS), long-term: -0.001
[2]; Table S4a, 10^-6 mol/L
  delta slope (DS), short-term: 0.017
  delta slope (DS), long-term: 0.004
[2]; Table S4a, 10^-7 mol/L
  delta slope (DS), short-term: 0.011
  delta slope (DS), long-term: 0.002
[2]; Table S4a, 10^-8 mol/L
  delta slope (DS), short-term: 0.008
  delta slope (DS), long-term: 0.001
[2]; [6]
  Cardiotoxicity, HUVEC: 0
[2]
  cytotoxic effect on HUVEC, result in words: completely lost the cytotoxic effect
[3]
  IC50: 0.783 ± 0.09 µM
[5]
  IC50: 6.2 ± 1.5 µM
